Tests used:
[1] = Partition coefficient based on the octanol extraction method (logPoctanol); conditions: octanol / 10 mmol/L phosphate buffer (pH 7.4), radioactivity count
Procedure: 10 μL each of the prepared sample solution was respectively added to 2 mL of octanol, further, 2 mL of 10 mmol/L phosphate buffer (pH 7.4) was added, and stirred for 30 seconds. […] Using the obtained radioactivity count, log Poctanol was calculated in accordance with the equation (2).

[2] = system: Salmonella typhimurium TA98; test: Reverse mutation test (Ames test), TA98; assay type: cell-based; conditions: maximum 5000 μg/plate
Procedure: (§1) In order to examine gene mutagenicity of Compounds 1, 2 and 4, reverse mutation test using Salmonella typhimurium TA98 and TA100 (hereinafter referred to as Ames test) was conducted.
(§2) The test was conducted without addition of S9mix and with addition of S9mix. Dimethylsulfoxide was used as a negative control. A positive control was 2-(2-furyl)-3-(5-nitro-2-furyl)acrylamide in case S9mix was not added, and 2-aminoanthracene in case S9 mix was added.
(§3) The amount of each sample to be added to the test plate was 7 dosages (geometric ratio 4) with the maximum dose being 5000 μg/plate. After a sample to be examined and a strain (TA98 or TA100), or a sample to be examined, S9mix and the strain were mixed together, the mixture was multilayered using soft agar on a medium of a test plate, and then incubated at 37° C. for 48 hours.
(§4) In order to examine gene mutagenicity of Compound 8, reverse mutation test using Salmonella typhimurium TA98 and TA100 (hereinafter referred to as Ames test) was conducted.
(§5) The test was conducted without addition of S9mix and with addition of S9mix. Dimethylsulfoxide was used as a negative control. A positive control was 2-(2-furyl)-3-(5-nitro-2-furyl)acrylamide in case S9mix was not added, and 2-aminoanthracene in case S9mix was added.
as §3, with “Compound 8” for “each sample”, “3)” for “4)”, “Compound 8” for “a sample to be examined”, “Compound 8,” for “a sample to be examined,”

[3] = system: Salmonella typhimurium TA100; test: Reverse mutation test (Ames test), TA100; assay type: cell-based; conditions: maximum 5000 μg/plate
Procedure: as §1, §2, §3, §4, §5
as §3, with “Compound 8” for “each sample”, “3)” for “4)”, “Compound 8” for “a sample to be examined”, “Compound 8,” for “a sample to be examined,”

[4] = system: Salmonella typhimurium TA98 and TA100; test: Reverse mutation test (Ames test), overall judgment; assay type: cell-based; conditions: TA98 and TA100, with and without S9mix
Procedure: as §1, §2, §3, §4, §5
as §3, with “Compound 8” for “each sample”, “3)” for “4)”, “Compound 8” for “a sample to be examined”, “Compound 8,” for “a sample to be examined,”

[5] = biological target: T1, amyloid (aggregated Aβ1-40) (Homo sapiens, UniProt P05067); test: Measurement of amyloid affinity: in vitro binding test, inhibition of [125I]3′-I-BTA-0 binding
T1 construct: Aβ1-40 (Peptide Institute) was dissolved in phosphate buffer (pH 7.4); purchased Peptide Institute
Procedure: Affinity of the present compounds with amyloid was examined by the following in vitro binding tests.
(1) Aβ1-40 (Peptide Institute) was dissolved in phosphate buffer (pH 7.4) and shaken at 37° C. for 62-72 hours, to obtain a suspension of aggregated Aβ (concentration: 1 mg/mL equivalent, hereinafter referred to as amyloid suspension in these Examples).
(3) According to the method described in a literature (Wang, Y., et al., J. Labeled Compounds Radiopharmaceut. 44, 5239 (2001)), [^125I]2-(3′-iodo-4′-aminophenyl)benzothiazole (hereinafter referred to as [^125I]3′-I-BTA-0) was prepared from a labeling precursor 2-(4′-aminophenyl)benzothiazole, and dissolved in ethanol. [^125I]sodium iodide of 12-71 MBq (10-30 μL in volume) was used for the production, to obtain [^125I]3′-I-BTA-0 of 1-22 MBq immediately after the synthesis.
(5) Samples in which [^125I]3′-I-BTA-0, each compound for evaluation and amyloid were dissolved in a 0.1% bovine serum albumin-containing phosphate buffer (pH 7.4) at final concentrations shown in Table 2 were prepared. The resulting samples were placed in each well (about 0.3 mL in volume) of a 96-well microplate.
(6) The microplate filled with the sample solutions was shaken at a given rate (400 rpm) at 22° C. for 3 hours. Then, each sample solution was filtered through a glass fiber filter (trade name: Mulutiscreen™-FC, manufactured by Millipore), to separate the [^125I3′-I-BTA-0 attached to amyloid from the [^125I]3′-I-BTA-0 free from amyloid.
(7) The glass fiber filter used for the filtration of each sample solution was washed with a 0.1% bovine serum albumin-containing phosphate buffer (pH 7.4) (0.5 mL×5), and radioactivity of the glass fiber filter was measured with an autowell gamma system (manufactured by Aloka, Type: ARC-301B).
(8) Separately, a solution containing 15 μmol/L of 6-Me-BTA-2, 400 pmol/L of [^125I]3′-I-BTA-0 and 1 μmol/L of Aβ1-40 in a 0.1% bovine serum albumin-containing phosphate buffer (pH 7.4) was prepared and subjected to the same procedures as described above in (6) and (7) to measure a radioactivity level. The measured radioactivity level was defined as the background radioactivity level, and used in the calculation of the inhibition ratio (hereinafter referred to as BG).
(9) Using the radioactivity levels measured above in (7) and (8), the inhibition ratio was determined by the following formula (1).
A graph in which values converted by probit transformation from the obtained inhibition ratios were plotted relative to logarithms of concentrations of compounds for evaluation was prepared to obtain an approximate straight line by the least square method. Using the line, the concentration of each compound for evaluation was determined, at which the radioactivity level is half of the level of the sample free from each compound for evaluation, and was defined as a 50% inhibition concentration of each compound (hereinafter referred to as IC50% value). Using the value as an indicator, affinity of each compound for evaluation with amyloid (aggregated Aβ1-40) was evaluated.

[6] = Transferability into brain and clearance (Example I-16, Comparative Example I-7); assay type: in vivo, male Wistar rats; conditions: rats, intravenous injection, two animals
Procedure: Using Compound 6, a time course change of radioactive accumulation in brain of male Wistar rats (7-week old) was measured.
Also, radioactivity (hereinafter referred to as B in this Example) of 0.05 mL of a 1000-fold diluted solution of the injected solution was measured in the same manner as above. Using these measurement results, radioactive accumulation per unit weight of brain (% ID/g) at the respective time points was calculated in accordance with the following formula (3).

[7] = Transferability into brain and clearance (Examples II-11, II-12, Comparative Example II-1); conditions: rats, intravenous injection, three animals
Procedure: Using the Compounds 10 and 11, a time course change of radioactive accumulation in brain of male Wistar rats (7-week old) was measured.
The rats were sacrificed by bleeding from abdominal artery, and brains were removed and subjected to measurement of mass of brains and further subjected to measurement of radioactivity (hereinafter referred to as A in this Example) with a single channel analyzer (detector type: SP-20 manufactured by OHYO KOKEN KOGYO Co., Ltd.) 2, 5, 30 and 60 minutes after the injection. Also, radioactivity (hereinafter referred to as B in this Example) of the rest of the whole body was measured in the same manner as above. Using these measurement results, radioactive accumulation per unit weight of brain (% ID/g) at the respective time points were calculated in accordance with the following formula (4).
Three animals were used for experiment at the respective time points.

[8] = biological target: T2, amyloid (amylin) (Homo sapiens, UniProt P10997); test: Inhibition of binding of Thioflavin T to amyloid derived from amylin; conditions: Thioflavin T 5 μmol/L, amyloid 2.6 μmol/L
T2 construct: Amylin (human) (manufactured by Wako) was dissolved in phosphate buffer (pH 7.4); purchased Wako
T2 sequence (P10997 34-70 limits assumed): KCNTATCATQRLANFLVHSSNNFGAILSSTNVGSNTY
Procedure: Amylin is an amyloid accumulating in pancreas of type II diabetes.
(3) The amyloid suspension was dissolved in 50 mM phosphate buffer (pH 7.4) at a concentration of amylin of 15 μM.
(4) Samples in which each compound for evaluation and amyloid were dissolved in a 50 mM phosphate buffer (pH 7.4) at final concentrations shown in Table 9 were prepared.
(5) A sample in which 100 μL of 50 mM phosphate buffer (pH 7.4) and 50 μL of 50 mM glycin-NaOH buffer (pH 8.5) were mixed was made as a blank, and subjected to the same procedure as in (4) and used for a calculation of inhibition ratio (hereinafter referred to as BG).
(6) The microplate filled with the sample solutions was left to stand at room temperature for 30 hours. Then, fluorescence strength of each sample solution was measured (measurement conditions: excitation wavelength of 446nm, emission wavelength of 490 nm) with microplate reader (type: SPECTRA MAX GEMINI XS, manufactured by Molecular Devices) (hereinafter, A denotes the fluorescence strength in a sample with zero (0) concentration of each compound for evaluation, and B denotes the fluorescence strength in a sample with 1.5 μmol/L or higher concentration of each compound for evaluation).
(7) Using the fluorescence strength measured above in (6), the following formula (5): […]
was used to determine the inhibition ratio.

[9] = Table 8, 7 dosages (geometric ratio 3)
[10] = Table 6, 7 dosages (geometric ratio 4)
[11] = up to 5000 μg/plate (geometric ratio 4)

T1 sequence (P05067 672-711 limits assumed): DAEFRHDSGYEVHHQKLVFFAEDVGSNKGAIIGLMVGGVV

Oc1ccc(-c2cn3cc([123I])cnc3n2)cc1 [Compound 9, [^123I]-2-(4′-hydroxyphenyl)-6-iodoimidazo[1,2-a]pyrimidine]
logPoctanol value [1]: 1.7

Oc1ccc(-c2cn3cc(I)ncc3n2)cc1 [Compound 8, 2-(4′-hydroxyphenyl)-6-iodoimidazo[1,2-a]pyrazine]
Mutagenicity, TA98, with addition of S9mix [2, 9]: Negative | Mutagenicity, TA98, without addition of S9mix [2, 9]: Negative | Mutagenicity, TA100, with addition of S9mix [3, 9]: Negative | Mutagenicity, TA100, without addition of S9mix [3, 9]: Negative | Judgment in the Ames test (gene mutagenicity) ([4]; up to 5000 μg/plate (geometric ratio 3)): negative

CN(C)c1ccc(-c2cn3cc([125I])ccc3n2)cc1 [[^125I]-IMPY, reference compound]
logPoctanol value [1]: 2.1

Oc1ccc(-c2cn3cc(I)cnc3n2)cc1 [Compound 4, 2-(4′-hydroxyphenyl)-6-iodoimidazo[1,2-a]pyrimidine]
IC50 [5]: 0.0541 µM | Mutagenicity, TA98, with addition of S9mix [2, 10]: Negative | Mutagenicity, TA98, without addition of S9mix [2, 10]: Negative | Mutagenicity, TA100, with addition of S9mix [3, 10]: Negative | Mutagenicity, TA100, without addition of S9mix [3, 10]: Negative | Judgment in the Ames test (gene mutagenicity) [4, 11]: negative

CN(C)c1ccc(-c2cn3cc([123I])ccc3n2)cc1 [^123I-IMPY, reference compound]
Radioactive accumulation in brain per unit weight ([6]; after 2 min.): 1.02 % ID/g | Radioactive accumulation in brain per unit weight ([6]; after 5 min.): 0.99 % ID/g | Radioactive accumulation in brain per unit weight ([6]; after 30 min.): 0.20 % ID/g | Radioactive accumulation in brain per unit weight ([6]; after 60 min.): 0.08 % ID/g | Radioactive accumulation in brain per unit weight ([7]; after 2 min.): 1.19 % ID/g | Radioactive accumulation in brain per unit weight ([7]; after 5 min.): 0.97 % ID/g | Radioactive accumulation in brain per unit weight ([7]; after 30 min.): 0.23 % ID/g | Radioactive accumulation in brain per unit weight ([7]; after 60 min.): 0.09 % ID/g

Nc1c(/N=N/c2ccc(-c3ccc(/N=N/c4cc(S(=O)(=O)O)c5ccccc5c4N)cc3)cc2)cc(S(=O)(=O)O)c2ccccc12 [Congo-Red, reference compound]
IC50 [5]: > 1 µM

Cc1ccc2nc(-c3ccc(N(C)C)cc3)sc2c1 [Compound 6-Me-BTA-2, 6-methyl-2-[4′-(N,N-dimethylamino)phenyl]benzothiazole, reference compound]
IC50 [5]: 0.0254 µM

Oc1ccc(-c2cn3cc(Br)ccc3n2)cc1 [Compound 1, 6-bromo-2-(4′-hydroxyphenyl)imidazo[1,2-a]pyridine]
IC50 [5]: 0.0044 µM | Mutagenicity, TA98, with addition of S9mix [2, 10]: Negative | Mutagenicity, TA98, without addition of S9mix [2, 10]: Negative | Mutagenicity, TA100, with addition of S9mix [3, 10]: Negative | Mutagenicity, TA100, without addition of S9mix [3, 10]: Negative | Judgment in the Ames test (gene mutagenicity) [4, 11]: negative | Inhibition ratio (%) of binding of amyloid (amylin) to Thioflavin T ([8]; compound 1.5 μmol/L): 8.7% | Inhibition ratio (%) of binding of amyloid (amylin) to Thioflavin T ([8]; compound 15 μmol/L): 41.3% | Inhibition ratio (%) of binding of amyloid (amylin) to Thioflavin T ([8]; compound 30 μmol/L): 27.0%

Nc1ccc(-c2nc3ccccc3s2)cc1I [3′-I-BTA-0, 2-(3′-Iodo-4′-aminophenyl)benzothiazole, reference compound]
IC50 [5]: 0.0101 µM

Oc1ccc(-c2cn3cc(I)ccc3n2)cc1 [Compound 2, 2-(4′-hydroxyphenyl)-6-iodoimidazo[1,2-a]pyridine]
IC50 [5]: 0.046 µM | Mutagenicity, TA98, with addition of S9mix [2, 10]: Negative | Mutagenicity, TA98, without addition of S9mix [2, 10]: Negative | Mutagenicity, TA100, with addition of S9mix [3, 10]: Negative | Mutagenicity, TA100, without addition of S9mix [3, 10]: Negative | Judgment in the Ames test (gene mutagenicity) [4, 11]: negative | Inhibition ratio (%) of binding of amyloid (amylin) to Thioflavin T ([8]; compound 1.5 μmol/L): 11.2% | Inhibition ratio (%) of binding of amyloid (amylin) to Thioflavin T ([8]; compound 15 μmol/L): 16.3% | Inhibition ratio (%) of binding of amyloid (amylin) to Thioflavin T ([8]; compound 30 μmol/L): 32.0%

Oc1ccc(-c2cn3cc([125I])ccc3n2)cc1 [Compound 5, [^125I]-2-(4′-hydroxyphenyl)-6-iodoimidazo[1,2-a]pyridine]
logPoctanol value [1]: 1.6

Oc1ccc(-c2cn3cc(OCCCF)ccc3n2)cc1 [Compound 3, 6-(3′-fluoropropoxy)-2-(4′-hydroxyphenyl)imidazo[1,2-a]pyridine]
IC50 [5]: 0.0544 µM
